Key:
[1] = system: Human plasma; assay: Human plasma anticoagulation, activated partial thromboplastin time (APTT); assay type: biochemical; conditions: concentration required to double the APTT, linear extrapolation
Protocol: (§1) Dog plasma and rat plasma is obtained from conscious mixed-breed hounds (either sex, Hazelton-LRE, Kalamazoo, Mich., U.S.A.) or from anesthetized male Sprague-Dawley rats (Harlan Sprague-Dawley, Inc., Indianapolis, Ind., U.S.A.) by venipuncture into 3.8 percent citrate. Fibrinogen is prepared from in-date ACD human blood as the fraction I-2 according to previous procedures and specifications. Smith, Biochem. J., 185, 1-11 (1980); and Smith, et al., Biochemistry, 11, 2958-2967 (1972). Human fibrinogen is also purchased as 98 percent pure/plasmin free from American Diagnostica, Greenwich, Conn. Coagulation reagents ACTIN, Thromboplastin, and Human plasma are from Baxter Healthcare Corp., Dade Division, Miami, Fla. Bovine thrombin from Parke-Davis ([…], Mich.) is used for coagulation assays in plasma.
(§2) Coagulation assay procedures are as previously described. Smith, et al., Thrombosis Research, 50, 163-174 (1988). A CoAScreener coagulation instrument (American LABor, Inc.) is used for all coagulation assay measurements. The prothrombin time (PT) is measured by adding 0.05 mL saline and 0.05 mL Thromboplastin-C reagent to 0.05 mL test plasma. The activated partial thromboplastin time (APTT) is measured by incubation of 0.05 mL test plasma with 0.05 mL Actin reagent for 120 seconds followed by 0.05 mL CaCl2 (0.02M). The thrombin time (TT) is measured by adding 0.05 mL saline and 0.05 mL thrombin (10 NIH units/mL) to 0.05 mL test plasma. The compounds of formula I are added to human or animal plasma over a wide range of concentrations to determine prolongation effects on the APTT, PT, and TT assays. Linear extrapolations are performed to estimate the concentrations required to double the clotting time for each assay.

[2] = system: Human plasma; assay: Human plasma anticoagulation, prothrombin time (PT); assay type: biochemical; conditions: concentration required to double the PT, linear extrapolation
Protocol: as §1, §2

[3] = target: T1, Trypsin (Bos taurus, UniProt P00760); assay: Serine protease selectivity, chromogenic substrate (Kass), trypsin; assay type: biochemical, bovine; conditions: substrate N-Benzoyl-Phe-Val-Arg-p-nitroanilide
T1 construct: Bovine trypsin is purchased; purchased Worthington Biochemicals, Freehold, N.J
T1 sequence (P00760 24-246): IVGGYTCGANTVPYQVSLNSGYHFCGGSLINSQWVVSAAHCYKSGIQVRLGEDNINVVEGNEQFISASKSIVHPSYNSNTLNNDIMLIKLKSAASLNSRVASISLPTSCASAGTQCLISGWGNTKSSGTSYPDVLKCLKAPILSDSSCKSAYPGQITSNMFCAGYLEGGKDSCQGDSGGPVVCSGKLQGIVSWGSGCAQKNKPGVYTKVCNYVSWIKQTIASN
Protocol: (§3) The assay is carried out by mixing 50 μL buffer (0.03M Tris, 0.15M NaCl, pH 7.4) with 25 μL of bovine thrombin or human thrombin solution (0.21 mg/mL of thrombostat bovine thrombin, Parke-Davis, or purified human thrombin, Enzyme Research Laboratories, South Bend, Ind., at about 8 NIH units/mL, in the same buffer) and 25 μL of test compound in a solvent (in 50% aqueous methanol, v:v). The 150 μL of an aqueous solution of the chromogenic substrate (at 0.25 mg/mL) are added and the rates of hydrolysis of the substrate are measured by monitoring the reactions at 405 nm for the release of p-nitroaniline. Standard curves are constructed by plotting free thrombin concentration against hydrolysis rate. The hydrolysis rates observed with test compounds are then converted to "free thrombin" values in the respective assays by use of the standard curves. The bound thrombin (bound to test compound) is calculated by subtracting the amount of free thrombin observed in each assay from the known initial amount of thrombin used in the assay. The amount of free inhibitor in each assay is calculated by subtracting the number of moles of bound thrombin from the number of moles of added inhibitor (test compound).
(§4) Kass is calculated for a range of concentrations of test compounds and the mean value is reported in units of liter per mole.
(§5) By substantially following the procedures described above for human thrombin, and using other human blood coagulation system serine proteases and proteases of the fibrinolytic system with the appropriate chromogenic substrates, identified below, selectivity of the compounds of the present invention with respect to the coagulation factor serine proteases and with respect to the fibrinolytic system serine proteases are evaluated as well as their substantial lack of interference with serine proteases of the fibrinolytic system. Thrombin inhibitors preferably should spare fibrinolysis induced by urokinase, tissue plasminogen activator (t-PA) and streptokinase. This would be important to the therapeutic use of such agents as an adjunct to streptokinase, t-PA or urokinase thrombolytic therapy and to the use of such agents as an endogenous fibrinolysis-sparing (with respect to t-PA and urokinase) antithrombotic agent. In addition to the lack of interference with the amidase activity of the fibrinolytic proteases, such fibrinolytic system sparing can be studied by the use of human plasma clots and their lysis by the respective fibrinolytic plasminogen activators.
(§6) Human factors X, Xa, IXa, XIa, and XIIa are purchased from Enzyme Research Laboratories, South Bend, Ind.; human urokinase from Leo Pharmaceuticals, Denmark; and recombinant activated Protein C (aPC) is prepared at Eli Lilly and Co. substantially according to U.S. Pat. No. 4,981,952. Chromogenic substrates: N-Benzoyl-Ile-Glu-Gly-Arg-p-nitroanilide (for factor Xa); N-Cbz-D-Arg-Gly-Arg-p-nitroanilide (for factor IXa assay as the factor Xa substrate); Pyroglutamyl-Pro-Arg-p-nitroanilide (for Factor XIa and for aPC); H-D-Pro-Phe-Arg-p-nitroanilide (for factor XIIa); and Pyroglutamyl-Gly-Arg-p-nitroanilide (for urokinase); are purchased from KabiVitrum, Stockholm, Sweden, or from Midwest Biotech, Fishers, Ind. Bovine trypsin is purchased from Worthington Biochemicals, Freehold, N.J., and human plasma kallikrein from Kabi Vitrum, Stockholm, Sweden. Chromogenic substrate H-D-Pro-Phe-Arg-p-nitroanilide for plasma kallikrein is purchased from Kabi Vitrum, Stockholm, Sweden. N-Benzoyl-Phe-Val-Arg-p-nitroanilide, the substrate for human thrombin and for trypsin, is synthesized according to procedures described above for the compounds of the present invention, using known methods of peptide coupling from commercially available reactants or purchased from Midwest Biotech, Fishers, Ind.

[4] = target: T2, Plasmin (Homo sapiens, UniProt P00747); assay: Serine protease selectivity, chromogenic substrate (Kass), plasmin; assay type: biochemical; conditions: substrate H-D-Val-Leu-Lys-p-nitroanilide
T2 construct: Human plasmin is purchased; purchased Boehringer Mannheim, Indianapolis, Ind
T2 sequence (P00747 581-810 limits assumed): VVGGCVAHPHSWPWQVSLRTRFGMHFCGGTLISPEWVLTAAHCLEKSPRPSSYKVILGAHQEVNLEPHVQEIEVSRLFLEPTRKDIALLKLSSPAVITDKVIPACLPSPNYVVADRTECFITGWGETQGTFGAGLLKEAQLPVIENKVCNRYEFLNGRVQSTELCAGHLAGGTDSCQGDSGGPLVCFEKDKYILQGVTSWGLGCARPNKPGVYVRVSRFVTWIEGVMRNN
T2 sequence (P00747 97-580 partner limits assumed): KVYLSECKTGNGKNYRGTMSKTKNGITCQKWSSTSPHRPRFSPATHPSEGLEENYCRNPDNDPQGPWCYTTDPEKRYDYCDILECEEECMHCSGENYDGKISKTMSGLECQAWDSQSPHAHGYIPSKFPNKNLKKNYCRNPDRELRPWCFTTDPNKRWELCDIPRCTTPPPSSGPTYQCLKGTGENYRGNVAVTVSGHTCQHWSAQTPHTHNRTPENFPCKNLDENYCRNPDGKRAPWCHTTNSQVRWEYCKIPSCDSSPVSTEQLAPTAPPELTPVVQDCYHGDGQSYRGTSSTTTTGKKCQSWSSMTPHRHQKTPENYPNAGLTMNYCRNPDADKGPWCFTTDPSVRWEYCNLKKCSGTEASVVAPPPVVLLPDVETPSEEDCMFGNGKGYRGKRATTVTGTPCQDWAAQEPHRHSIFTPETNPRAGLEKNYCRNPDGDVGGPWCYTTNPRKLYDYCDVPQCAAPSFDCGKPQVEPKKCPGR
Protocol: as §3, §4, §5
(§7) Human plasmin is purchased from Boehringer Mannheim, Indianapolis, Ind.; nt-PA is purchased as single chain activity reference from American Diagnostica, Greenwich, Conn.; modified-t-PA6 (mt-PA6) is prepared at Eli Lilly and Company by procedure known in the art (See, Burck, et al., J. Biol. Chem., 265, […] (1990). Plasmin chromogenic substrate H-D-Val-Leu-Lys-p-nitroanilide and tissue plasminogen activator (t-PA) substrate H-D-Ile-Pro-Arg-p-nitroanilide are purchased from Kabi Vitrum, Stockholm, Sweden.

[5] = target: Human Thrombin (Homo sapiens, UniProt P00734); assay: Inhibition of amidase activity of thrombin (Kass); assay type: biochemical; conditions: apparent association constant, mean over a range of concentrations
Protocol: as §3
The Kass value is the hypothetical equilibrium constant for the reaction between thrombin and the test compound (I). [drawing 54]
as §4

[6] = target: T3, t-PA (Homo sapiens, UniProt P00750); assay: Serine protease selectivity, chromogenic substrate (Kass), t-PA; assay type: biochemical; conditions: substrate H-D-Ile-Pro-Arg-p-nitroanilide
T3 construct: purchased American Diagnostica, Greenwich, Conn
T3 sequence (P00750 36-562): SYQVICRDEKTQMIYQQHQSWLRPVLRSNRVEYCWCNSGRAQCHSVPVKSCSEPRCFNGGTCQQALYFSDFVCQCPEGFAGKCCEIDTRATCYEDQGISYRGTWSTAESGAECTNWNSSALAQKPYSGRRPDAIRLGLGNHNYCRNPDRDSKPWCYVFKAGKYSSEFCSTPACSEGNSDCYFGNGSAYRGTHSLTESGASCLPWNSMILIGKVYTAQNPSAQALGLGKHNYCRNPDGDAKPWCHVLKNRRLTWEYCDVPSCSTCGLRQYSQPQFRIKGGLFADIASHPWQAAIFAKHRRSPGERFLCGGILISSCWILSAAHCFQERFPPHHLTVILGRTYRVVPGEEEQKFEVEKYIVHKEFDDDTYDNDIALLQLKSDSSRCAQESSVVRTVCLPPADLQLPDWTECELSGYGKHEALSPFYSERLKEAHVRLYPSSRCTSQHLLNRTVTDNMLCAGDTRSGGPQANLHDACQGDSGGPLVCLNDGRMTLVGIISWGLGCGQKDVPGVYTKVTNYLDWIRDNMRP
Protocol: as §3, §4, §5, §7

[7] = target: T4, factor Xa (Homo sapiens, UniProt P00742); assay: Serine protease selectivity, chromogenic substrate (Kass), factor Xa; assay type: biochemical; conditions: substrate N-Benzoyl-Ile-Glu-Gly-Arg-p-nitroanilide
T4 construct: Human factors X, Xa, IXa, XIa, and XIIa are purchased; purchased Enzyme Research Laboratories, South Bend, Ind
T4 sequence (P00742 235-488 limits assumed): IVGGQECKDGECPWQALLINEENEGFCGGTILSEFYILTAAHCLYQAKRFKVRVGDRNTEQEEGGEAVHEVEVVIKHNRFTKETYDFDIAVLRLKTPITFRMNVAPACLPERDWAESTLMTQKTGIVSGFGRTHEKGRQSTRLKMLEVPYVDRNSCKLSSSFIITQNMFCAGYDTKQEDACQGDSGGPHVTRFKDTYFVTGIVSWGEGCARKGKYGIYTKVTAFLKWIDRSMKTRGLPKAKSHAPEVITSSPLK
T4 sequence (P00742 41-179 partner limits assumed): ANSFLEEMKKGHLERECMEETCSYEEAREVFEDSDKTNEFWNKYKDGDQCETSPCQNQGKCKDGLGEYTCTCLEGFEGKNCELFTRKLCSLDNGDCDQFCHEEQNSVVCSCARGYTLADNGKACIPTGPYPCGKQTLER
Protocol: as §3, §4, §5, §6

[8] = system: Human plasma; assay: Human plasma anticoagulation, thrombin time (TT); assay type: biochemical; conditions: concentration required to double the thrombin time, linear extrapolation
Protocol: as §1, §2

SMILES	2x Clotting time, APTT [1]	2x Clotting time, PT [2]	Enzyme Kass, Trypsin [3]	Enzyme Kass, Plasmin [4]	Enzyme Kass, Human Thrombin [5]	Enzyme Kass, t-PA [6]	Enzyme Kass, Xa [7]	2x Clotting time, TT [8]	2x Clotting time, APTT ([1]; HCl)	2x Clotting time, PT ([2]; HCl)	Enzyme Kass, Trypsin ([3]; HCl)	Enzyme Kass, Plasmin ([4]; HCl)	Enzyme Kass, Human Thrombin ([5]; HCl)	Enzyme Kass, t-PA ([6]; HCl)	Enzyme Kass, Xa ([7]; HCl)	2x Clotting time, TT ([8]; HCl)
CCS(=O)(=O)N[C@H](C(=O)N1C[C@@H](Oc2ccccc2)C[C@H]1C(=O)N[C@H](C=O)CCCNC(=N)N)c1ccccc1.Cl (relative stereo) [Example 16, EtSO2 -L-Phg-Pro(4-cis-phenoxy)-ArgH.HCl]	2,400 ng/mL	4,900 ng/mL	180 L/mol × 10^6	4.8 L/mol × 10^6	43 L/mol × 10^6	0.26 L/mol × 10^6	6.8 L/mol × 10^6	120 ng/mL								
CCS(=O)(=O)N[C@@H](C(=O)N1C[C@@H](Oc2ccccc2)C[C@H]1C(=O)N[C@H](C=O)CCCNC(=N)N)c1ccccc1.Cl (relative stereo) [Example 17, EtSO2 -D-Phg-Pro(4-cis-phenoxy)-ArgH.HCl]	380 ng/mL	1,200 ng/mL	910 L/mol × 10^6	26 L/mol × 10^6	2,200 L/mol × 10^6	1.5 L/mol × 10^6	32 L/mol × 10^6	16 ng/mL								
Cl.Cl.N=C(N)NCCC[C@@H](C=O)NC(=O)[C@@H]1C[C@H](Oc2ccc(C(=O)O)cc2)CN1C(=O)[C@H]1CCCCN1 (relative stereo) [Example 18, D-hPro-Pro(4-cis-(4-COOH-phenoxy))-ArgH.2 HCl]	5,969 ng/mL	10,783 ng/mL	52.2 L/mol × 10^6	0.37 L/mol × 10^6	4.5 L/mol × 10^6	0.013 L/mol × 10^6	0.58 L/mol × 10^6	248 ng/mL								
Cl.Cl.N=C(N)NCCC[C@@H](C=O)NC(=O)[C@@H]1C[C@H](Oc2cccc(C(=O)O)c2)CN1C(=O)[C@H]1CCCCN1 (relative stereo) [Example 19, D-hPro-Pro(4-cis-(3-COOH-phenoxy))-ArgH.2 HCl]	3,497 ng/mL	8,822 ng/mL	49.3 L/mol × 10^6	0.50 L/mol × 10^6	2.8 L/mol × 10^6	0.022 L/mol × 10^6	1.30 L/mol × 10^6	345 ng/mL								
CCS(=O)(=O)N[C@H](Cc1ccccc1)C(=O)N1[C@H](C(=O)N[C@H](C=O)CCCNC(=N)N)C[C@@H]2CCCC[C@@H]21.Cl (relative stereo) [Example 23, EtSO2 -D-Phe-cis-Ohi-ArgH.HCl]	312 ng/mL	746 ng/mL	312 L/mol × 10^6	28.2 L/mol × 10^6	957 L/mol × 10^6	2.07 L/mol × 10^6	4,37 L/mol × 10^6	19 ng/mL								
Cl.N=C(N)NCCC[C@@H](C=O)NC(=O)[C@@H]1C[C@@H]2CCCC[C@@H]2N1C(=O)[C@@H](Cc1ccccc1)NCC(=O)O (relative stereo) [Example 24, HOOCCH2 -D-Phe-cis-Ohi-ArgH.HCl]	490 ng/mL	727 ng/mL	424 L/mol × 10^6	16.3 L/mol × 10^6	1,160 L/mol × 10^6	0.075 L/mol × 10^6	1.70 L/mol × 10^6	11 ng/mL								
Cl.Cl.NC(N)=NCCCC(C=O)NC(=O)C1CC(Oc2ccccc2)CN1C(=O)C1NCCC2CCCCC21 [Example 14, L-1-Piq-Pro(4-cis-phenoxy)-ArgH.2 HCl]	9,000 ng/mL	18,000 ng/mL	6.2 L/mol × 10^6	0.34 L/mol × 10^6	8.7 L/mol × 10^6	0.002 L/mol × 10^6	0.48 L/mol × 10^6	460 ng/mL								
Cl.Cl.N=C(N)NCCCC(C=O)NC(=O)C1CC2CCCCC2N1C(=O)C1NCCC2CCCCC21 [Example 21, L-1-cis-Piq-cis-Ohi-ArgH.2 HCl]									16,234 ng/mL	30,776 ng/mL	3.6 L/mol × 10^6	0.20 L/mol × 10^6	3.1 L/mol × 10^6	0.001 L/mol × 10^6	0.03 L/mol × 10^6	1,199 ng/mL

— patent US5599793A, “Antithromobotic agents” (Eli Lilly and Company, priority 1995, dated 1997)
